Experimental data: publication PMC6704710, “Preclinical evaluation of 3D185, a novel potent inhibitor of FGFR1/2/3 and CSF-1R, in FGFR-dependent and macrophage-dominant cancer models” (Journal of Experimental & Clinical Cancer Research : CR, 2019)

What was measured:
Experiment in all cases: Eurofins kinase panel
Format in all cases: biochemical
Conditions in all cases: read-out: Inhibition rate (%)
[1] = target: T1, PRKG2(h) (Homo sapiens, UniProt Q13237)
T1 construct: purchased Eurofins (KinaseProfiler)
T1 sequence (Q13237 1-762): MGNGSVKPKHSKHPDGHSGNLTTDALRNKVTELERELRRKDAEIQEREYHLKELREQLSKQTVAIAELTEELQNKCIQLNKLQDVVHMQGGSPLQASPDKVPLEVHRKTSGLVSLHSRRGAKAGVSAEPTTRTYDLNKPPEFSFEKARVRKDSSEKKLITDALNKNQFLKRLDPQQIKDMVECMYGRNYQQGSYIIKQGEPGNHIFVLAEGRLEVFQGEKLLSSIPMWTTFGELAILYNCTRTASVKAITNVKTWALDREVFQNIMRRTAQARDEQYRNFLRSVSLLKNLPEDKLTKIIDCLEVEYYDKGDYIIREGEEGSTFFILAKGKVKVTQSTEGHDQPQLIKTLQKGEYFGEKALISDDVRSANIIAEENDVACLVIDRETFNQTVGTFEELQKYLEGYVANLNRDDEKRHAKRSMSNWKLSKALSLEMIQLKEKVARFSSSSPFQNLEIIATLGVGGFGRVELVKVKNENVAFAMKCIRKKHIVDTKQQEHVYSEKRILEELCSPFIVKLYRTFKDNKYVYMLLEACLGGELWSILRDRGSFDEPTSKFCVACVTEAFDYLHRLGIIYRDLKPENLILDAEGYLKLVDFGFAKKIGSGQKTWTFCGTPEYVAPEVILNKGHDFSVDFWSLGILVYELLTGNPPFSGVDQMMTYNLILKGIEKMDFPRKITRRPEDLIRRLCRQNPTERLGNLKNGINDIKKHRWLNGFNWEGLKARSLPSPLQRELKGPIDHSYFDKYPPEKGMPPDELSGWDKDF

[2] = target: T2, Arg(h) (Homo sapiens, UniProt P42684)
T2 construct: purchased Eurofins (KinaseProfiler)

[3] = target: T3, TGFBR2(h) (Homo sapiens, UniProt P37173)
T3 construct: purchased Eurofins (KinaseProfiler)

[4] = target: T4, PAK5(h) (Homo sapiens, UniProt Q9P286)
T4 construct: purchased Eurofins (KinaseProfiler)

[5] = target: T5, FGFR4(h) (Homo sapiens, UniProt P22455)
T5 construct: purchased Eurofins (KinaseProfiler)

[6] = target: T6, ULK2(h) (Homo sapiens, UniProt Q8IYT8)
T6 construct: purchased Eurofins (KinaseProfiler)
T6 sequence (Q8IYT8 1-1036): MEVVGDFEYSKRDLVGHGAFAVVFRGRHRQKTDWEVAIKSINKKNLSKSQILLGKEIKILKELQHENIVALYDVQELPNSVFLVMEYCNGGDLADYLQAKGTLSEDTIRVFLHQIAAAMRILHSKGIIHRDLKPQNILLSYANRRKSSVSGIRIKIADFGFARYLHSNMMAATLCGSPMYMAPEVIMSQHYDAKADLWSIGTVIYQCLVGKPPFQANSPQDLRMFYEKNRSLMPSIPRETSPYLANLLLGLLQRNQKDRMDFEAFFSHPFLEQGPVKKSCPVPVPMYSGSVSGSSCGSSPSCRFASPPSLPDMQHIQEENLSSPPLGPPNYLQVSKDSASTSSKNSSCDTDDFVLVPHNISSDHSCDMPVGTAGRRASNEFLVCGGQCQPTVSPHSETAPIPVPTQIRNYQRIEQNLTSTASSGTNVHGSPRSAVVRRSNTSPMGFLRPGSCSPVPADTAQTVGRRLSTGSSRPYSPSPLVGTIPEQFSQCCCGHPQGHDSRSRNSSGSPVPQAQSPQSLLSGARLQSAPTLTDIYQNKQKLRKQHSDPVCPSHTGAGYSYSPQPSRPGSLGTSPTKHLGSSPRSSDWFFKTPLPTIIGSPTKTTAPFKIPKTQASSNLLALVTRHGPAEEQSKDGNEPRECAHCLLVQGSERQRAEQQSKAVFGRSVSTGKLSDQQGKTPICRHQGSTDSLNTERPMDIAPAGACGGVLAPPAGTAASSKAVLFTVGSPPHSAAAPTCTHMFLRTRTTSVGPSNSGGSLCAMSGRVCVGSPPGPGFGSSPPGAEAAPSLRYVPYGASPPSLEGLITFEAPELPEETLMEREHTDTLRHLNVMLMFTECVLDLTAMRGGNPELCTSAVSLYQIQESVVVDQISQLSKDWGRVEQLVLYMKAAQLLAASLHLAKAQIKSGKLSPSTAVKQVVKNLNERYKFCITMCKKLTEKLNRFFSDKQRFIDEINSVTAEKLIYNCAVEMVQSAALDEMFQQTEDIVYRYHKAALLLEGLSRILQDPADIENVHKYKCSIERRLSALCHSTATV

[7] = target: T7, CDK4/cyclinD3(h) (Homo sapiens, UniProt P11802)
T7 construct: purchased Eurofins (KinaseProfiler)

[8] = target: T8, PIP5K1α(h) (Homo sapiens, UniProt Q99755)
T8 construct: purchased Eurofins (KinaseProfiler)

[9] = target: T9, EGFR(h) (Homo sapiens, UniProt P00533)
T9 construct: purchased Eurofins (KinaseProfiler)

[10] = target: T10, Ros(h) (Homo sapiens, UniProt P08922)
T10 construct: purchased Eurofins (KinaseProfiler)

[11] = target: T11, CaMKIIγ(h) (Homo sapiens, UniProt Q13555)
T11 construct: purchased Eurofins (KinaseProfiler)
T11 sequence (Q13555 whole entry): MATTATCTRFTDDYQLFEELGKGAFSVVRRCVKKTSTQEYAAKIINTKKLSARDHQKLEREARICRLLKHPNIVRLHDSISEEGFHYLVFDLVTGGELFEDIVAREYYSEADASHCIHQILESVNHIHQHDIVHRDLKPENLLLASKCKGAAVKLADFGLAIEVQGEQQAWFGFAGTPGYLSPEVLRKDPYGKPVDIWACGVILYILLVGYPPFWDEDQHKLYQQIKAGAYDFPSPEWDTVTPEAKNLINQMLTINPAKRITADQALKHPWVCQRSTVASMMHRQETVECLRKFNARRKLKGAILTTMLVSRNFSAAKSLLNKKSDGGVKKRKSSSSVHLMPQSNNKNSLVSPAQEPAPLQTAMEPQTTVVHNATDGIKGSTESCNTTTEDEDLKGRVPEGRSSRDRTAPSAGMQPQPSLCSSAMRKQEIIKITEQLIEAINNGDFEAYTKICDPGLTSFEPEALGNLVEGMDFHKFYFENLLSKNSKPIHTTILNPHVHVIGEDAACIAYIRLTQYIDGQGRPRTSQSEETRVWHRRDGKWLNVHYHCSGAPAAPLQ

T8 sequence (Q99755 whole entry): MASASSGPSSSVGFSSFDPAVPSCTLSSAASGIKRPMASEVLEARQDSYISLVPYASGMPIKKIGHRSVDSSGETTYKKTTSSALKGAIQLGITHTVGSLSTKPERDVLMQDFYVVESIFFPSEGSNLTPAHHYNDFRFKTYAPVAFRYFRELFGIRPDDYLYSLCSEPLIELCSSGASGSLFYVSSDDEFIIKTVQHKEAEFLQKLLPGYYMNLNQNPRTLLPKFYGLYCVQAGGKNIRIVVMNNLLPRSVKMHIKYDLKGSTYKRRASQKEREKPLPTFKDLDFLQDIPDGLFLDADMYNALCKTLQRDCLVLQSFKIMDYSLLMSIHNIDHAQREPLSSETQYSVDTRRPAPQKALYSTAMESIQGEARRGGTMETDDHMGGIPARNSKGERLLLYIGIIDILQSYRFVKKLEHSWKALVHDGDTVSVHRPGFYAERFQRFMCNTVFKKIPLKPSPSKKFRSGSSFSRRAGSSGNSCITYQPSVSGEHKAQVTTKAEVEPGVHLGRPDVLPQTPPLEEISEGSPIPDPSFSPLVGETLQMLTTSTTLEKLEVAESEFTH
T3 sequence (P37173 23-567): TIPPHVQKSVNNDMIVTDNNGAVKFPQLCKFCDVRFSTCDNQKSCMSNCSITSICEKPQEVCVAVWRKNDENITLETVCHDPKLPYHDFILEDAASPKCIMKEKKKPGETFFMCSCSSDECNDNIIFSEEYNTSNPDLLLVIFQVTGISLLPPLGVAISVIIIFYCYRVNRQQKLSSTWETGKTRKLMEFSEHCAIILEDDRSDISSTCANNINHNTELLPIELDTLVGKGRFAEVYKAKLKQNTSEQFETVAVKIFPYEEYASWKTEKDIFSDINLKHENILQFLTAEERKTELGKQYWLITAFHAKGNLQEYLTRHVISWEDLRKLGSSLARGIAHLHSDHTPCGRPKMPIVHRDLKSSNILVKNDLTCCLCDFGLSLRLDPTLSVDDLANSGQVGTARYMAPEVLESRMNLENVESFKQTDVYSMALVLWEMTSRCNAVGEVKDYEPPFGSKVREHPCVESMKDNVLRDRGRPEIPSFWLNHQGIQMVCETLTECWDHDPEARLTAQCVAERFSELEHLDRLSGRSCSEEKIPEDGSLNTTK
T2 sequence (P42684 whole entry): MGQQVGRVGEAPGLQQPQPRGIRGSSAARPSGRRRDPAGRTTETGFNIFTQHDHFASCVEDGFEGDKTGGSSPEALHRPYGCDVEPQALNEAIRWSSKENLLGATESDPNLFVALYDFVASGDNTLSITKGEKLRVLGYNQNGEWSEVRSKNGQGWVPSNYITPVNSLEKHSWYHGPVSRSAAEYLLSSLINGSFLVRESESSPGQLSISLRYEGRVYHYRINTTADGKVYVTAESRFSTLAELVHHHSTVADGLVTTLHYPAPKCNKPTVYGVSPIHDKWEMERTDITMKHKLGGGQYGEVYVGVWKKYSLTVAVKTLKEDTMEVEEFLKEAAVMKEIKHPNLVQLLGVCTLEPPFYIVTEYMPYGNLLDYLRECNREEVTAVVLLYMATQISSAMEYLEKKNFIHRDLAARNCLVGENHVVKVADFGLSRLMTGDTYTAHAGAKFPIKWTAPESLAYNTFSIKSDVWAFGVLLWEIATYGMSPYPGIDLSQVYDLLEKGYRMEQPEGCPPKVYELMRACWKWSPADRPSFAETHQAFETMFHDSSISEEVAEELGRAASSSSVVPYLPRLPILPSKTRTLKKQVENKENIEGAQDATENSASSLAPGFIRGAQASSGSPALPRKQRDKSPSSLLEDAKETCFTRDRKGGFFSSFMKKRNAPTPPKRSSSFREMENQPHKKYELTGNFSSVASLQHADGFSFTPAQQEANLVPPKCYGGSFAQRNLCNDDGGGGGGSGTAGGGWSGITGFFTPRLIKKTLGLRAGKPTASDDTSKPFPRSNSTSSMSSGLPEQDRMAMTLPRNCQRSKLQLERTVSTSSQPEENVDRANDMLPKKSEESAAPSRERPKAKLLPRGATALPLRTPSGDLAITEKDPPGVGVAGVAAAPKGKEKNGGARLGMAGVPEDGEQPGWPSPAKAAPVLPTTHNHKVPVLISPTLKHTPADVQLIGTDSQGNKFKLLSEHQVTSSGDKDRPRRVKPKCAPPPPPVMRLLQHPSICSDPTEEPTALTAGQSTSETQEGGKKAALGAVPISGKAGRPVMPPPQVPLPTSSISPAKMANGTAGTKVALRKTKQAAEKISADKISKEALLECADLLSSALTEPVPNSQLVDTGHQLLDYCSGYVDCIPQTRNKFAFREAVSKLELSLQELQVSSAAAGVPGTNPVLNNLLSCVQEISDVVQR
T4 sequence (Q9P286 whole entry): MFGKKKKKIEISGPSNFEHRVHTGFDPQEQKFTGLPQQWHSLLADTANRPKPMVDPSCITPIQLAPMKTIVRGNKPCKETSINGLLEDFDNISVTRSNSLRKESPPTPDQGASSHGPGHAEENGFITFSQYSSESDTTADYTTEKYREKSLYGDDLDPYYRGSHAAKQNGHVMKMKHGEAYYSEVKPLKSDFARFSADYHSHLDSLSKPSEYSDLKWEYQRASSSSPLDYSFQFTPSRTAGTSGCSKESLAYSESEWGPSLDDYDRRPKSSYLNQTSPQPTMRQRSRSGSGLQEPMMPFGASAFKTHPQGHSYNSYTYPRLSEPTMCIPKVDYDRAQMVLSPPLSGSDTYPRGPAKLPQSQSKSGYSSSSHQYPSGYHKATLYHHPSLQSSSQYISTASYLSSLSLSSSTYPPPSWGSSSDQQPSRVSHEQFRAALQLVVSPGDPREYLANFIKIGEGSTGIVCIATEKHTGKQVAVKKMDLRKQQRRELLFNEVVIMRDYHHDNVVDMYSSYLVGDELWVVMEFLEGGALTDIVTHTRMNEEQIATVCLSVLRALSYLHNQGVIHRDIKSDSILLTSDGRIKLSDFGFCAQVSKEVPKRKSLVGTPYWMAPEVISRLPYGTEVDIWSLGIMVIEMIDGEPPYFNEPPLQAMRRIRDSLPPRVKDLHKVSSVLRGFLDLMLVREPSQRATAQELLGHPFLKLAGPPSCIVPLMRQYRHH
T9 sequence (P00533 25-1210): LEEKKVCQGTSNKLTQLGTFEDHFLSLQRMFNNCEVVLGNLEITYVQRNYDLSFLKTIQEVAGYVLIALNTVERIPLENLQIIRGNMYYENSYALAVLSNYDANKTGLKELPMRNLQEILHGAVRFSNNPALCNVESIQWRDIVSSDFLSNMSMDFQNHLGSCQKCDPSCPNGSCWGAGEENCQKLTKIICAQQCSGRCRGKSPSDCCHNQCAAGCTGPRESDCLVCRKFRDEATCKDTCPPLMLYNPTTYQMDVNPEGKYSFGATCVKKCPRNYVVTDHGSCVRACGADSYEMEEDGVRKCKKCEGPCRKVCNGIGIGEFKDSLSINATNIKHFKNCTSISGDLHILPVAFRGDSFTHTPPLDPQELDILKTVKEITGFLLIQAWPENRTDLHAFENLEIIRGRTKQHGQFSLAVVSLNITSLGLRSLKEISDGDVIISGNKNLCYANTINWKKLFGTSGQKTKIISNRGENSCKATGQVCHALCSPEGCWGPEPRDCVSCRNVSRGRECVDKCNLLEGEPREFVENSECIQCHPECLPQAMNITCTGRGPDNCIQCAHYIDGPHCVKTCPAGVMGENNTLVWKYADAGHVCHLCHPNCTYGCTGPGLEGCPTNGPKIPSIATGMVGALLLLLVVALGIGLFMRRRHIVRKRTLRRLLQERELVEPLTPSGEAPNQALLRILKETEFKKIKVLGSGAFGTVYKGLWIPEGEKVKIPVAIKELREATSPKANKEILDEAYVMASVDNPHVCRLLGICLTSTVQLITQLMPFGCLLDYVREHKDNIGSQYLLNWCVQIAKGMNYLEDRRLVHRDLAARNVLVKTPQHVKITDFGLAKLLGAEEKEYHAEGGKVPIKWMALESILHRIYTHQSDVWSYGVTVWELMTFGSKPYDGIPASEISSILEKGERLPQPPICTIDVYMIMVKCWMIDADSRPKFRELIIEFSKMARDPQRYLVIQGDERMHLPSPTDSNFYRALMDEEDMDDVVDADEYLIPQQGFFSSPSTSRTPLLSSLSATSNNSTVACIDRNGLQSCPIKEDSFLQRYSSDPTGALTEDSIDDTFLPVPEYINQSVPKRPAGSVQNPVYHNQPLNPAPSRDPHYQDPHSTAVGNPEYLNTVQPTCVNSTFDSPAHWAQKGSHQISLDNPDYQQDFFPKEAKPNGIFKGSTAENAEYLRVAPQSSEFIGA

Compound: COc1cc(OC)c(Cl)c(-c2ccc3c(NC(=O)c4ccc(N5CCNC(C)(C)C5)cc4)n[nH]c3n2)c1Cl [3D185]
- inhibition at 0.01 µM ([1]; 10 nM): 1%
- inhibition at 0.1 µM ([1]; 100 nM): 3%
- inhibition at 1 µM ([1]; 1000 nM): 3%
- inhibition at 0.01 µM ([2]; 10 nM): 2%
- inhibition at 0.1 µM ([2]; 100 nM): 36%
- inhibition at 1 µM ([2]; 1000 nM): 87%
- inhibition at 0.01 µM ([3]; 10 nM): -10%
- inhibition at 0.1 µM ([3]; 100 nM): -5%
- inhibition at 1 µM ([3]; 1000 nM): -9%
- inhibition at 0.01 µM ([4]; 10 nM): -11%
- inhibition at 0.1 µM ([4]; 100 nM): -2%
- inhibition at 1 µM ([4]; 1000 nM): 5%
- inhibition at 0.01 µM ([5]; 10 nM): 43%
- inhibition at 0.1 µM ([5]; 100 nM): 91%
- inhibition at 1 µM ([5]; 1000 nM): 100%
- inhibition at 0.01 µM ([6]; 10 nM): 4%
- inhibition at 0.1 µM ([6]; 100 nM): 14%
- inhibition at 1 µM ([6]; 1000 nM): 22%
- inhibition at 0.01 µM ([7]; 10 nM): 5%
- inhibition at 0.1 µM ([7]; 100 nM): -4%
- inhibition at 1 µM ([7]; 1000 nM): 11%
- inhibition at 0.01 µM ([8]; 10 nM): -1%
- inhibition at 0.1 µM ([8]; 100 nM): -4%
- inhibition at 1 µM ([8]; 1000 nM): -9%
- inhibition at 0.01 µM ([9]; 10 nM): -12%
- inhibition at 0.1 µM ([9]; 100 nM): -16%
- inhibition at 1 µM ([9]; 1000 nM): 0%
- inhibition at 0.01 µM ([10]; 10 nM): -4%
- inhibition at 0.1 µM ([10]; 100 nM): 6%
- inhibition at 1 µM ([10]; 1000 nM): 17%
- inhibition at 0.01 µM ([11]; 10 nM): -2%
- inhibition at 0.1 µM ([11]; 100 nM): -6%
- inhibition at 1 µM ([11]; 1000 nM): -9%
